Assay results published in ChEMBL document CHEMBL1138593, “Structural modification of 3-arylisoquinolines to isoindolo[2,1-b]isoquinolinones for the development of novel topoisomerase 1 inhibitors with molecular docking study” (2009).
Calls of active or inactive are those of the source. The calls are words filed in the database; no cut-off is given here.

Columns and labels:
A549 = experiment: Cytotoxicity against human A549 cells by sulforhodamine B assay; assay type: functional
HCT-15 = experiment: Cytotoxicity against human HCT15 cells by sulforhodamine B assay; assay type: functional
SK-OV-3 = experiment: Cytotoxicity against human SKOV3 cells by sulforhodamine B assay; assay type: functional
Bos taurus = species on record: Bos taurus; experiment: Inhibition of calf thymus DNA topoisomerase 1 assessed as relaxation of supercoiled Escherichia coli pBR322 DNA at 100 ug/mL after 30 mins by agarose gel electrophoresis

SMILES | Activity (A549) [µg/mL] | Activity (HCT-15) [µg/mL] | Activity (SK-OV-3) [µg/mL] | topoisomerase 1 inhibition (active/not active) (Bos taurus)
COCOCc1cc(OC)c(OC)cc1-c1cc2ccc(C)cc2c(=O)[nH]1 | 25.02 | 31.13 | 28.22 | 
COCOCc1cc(OC)c(OC)cc1-c1cc2cc(C)ccc2c(=O)[nH]1 | 43.65 | 34.55 | 34.54 | 
O=c1c2ccccc2cc2n1Cc1ccccc1-2 | 3.7 | 43.93 | 14.84 | Active
COc1cc(CO)c(-c2cc3ccccc3c(=O)[nH]2)cc1OC | 7.32 | 19.68 | 12.58 | 
Cc1ccc2c(=O)n3c(cc2c1)-c1ccccc1C3 | 15.94 | 46.35 | 44.12 | Active
COc1cc2c(cc1OC)-c1cc3cc(C)ccc3c(=O)n1C2 | 49.09 | 34.98 | 36.15 | inactive
COc1ccc(-c2cc3ccc(C)cc3c(=O)[nH]2)c(CO)c1 | 10.11 | 7.39 | 9.69 | 
COc1ccc(COCc2ccccc2-c2cc3cc(C)ccc3c(=O)[nH]2)cc1 | 7.44 | 13.27 | 2.37 | 
COc1cc2c(cc1OC)-c1cc3ccccc3c(=O)n1C2 | 36.75 | 9.12 | 12.69 | inactive
O=c1[nH]c(-c2ccccc2CO)cc2ccccc12 | 6.89 | 3.88 | 21.98 | 
CC[C@@]1(O)C(=O)OCc2c1cc1n(c2=O)Cc2cc3ccccc3nc2-1 [CAMPTOTHECIN] | 0.072 | 0.089 | 0.035 | Active
COCOCc1cc(OC)ccc1-c1cc2cc(C)ccc2c(=O)[nH]1 | 80.22 | 29.26 | 31.26 | 
COc1ccc(-c2cc3cc(C)ccc3c(=O)[nH]2)c(CO)c1 | 19.43 | 4.28 | 14.59 | 
COCOCc1cc(OC)ccc1-c1cc2ccc(C)cc2c(=O)[nH]1 | 66.52 | 40.05 | 23.08 | 
COc1cc2c(cc1OC)-c1cc3ccc(C)cc3c(=O)n1C2 | 24.13 | 6.56 | 7.23 | inactive
COCOCc1cc(OC)c(OC)cc1-c1cc2ccccc2c(=O)[nH]1 | 16.04 | 24.7 | 12.68 | 
Cc1ccc2c(=O)[nH]c(-c3ccccc3CO)cc2c1 | 3.66 | 3.34 | 8.22 | 
COc1ccc(-c2cc3ccccc3c(=O)[nH]2)c(CO)c1 | 3.65 | 0.21 | 0.37 | 
COc1ccc(COCc2ccccc2-c2cc3ccc(C)cc3c(=O)[nH]2)cc1 | 3.33 | 4.15 | 4.76 | 
Cc1ccc2cc(-c3ccccc3CO)[nH]c(=O)c2c1 | 12.78 | 23.11 | 0.22 | 
COc1cc(CO)c(-c2cc3cc(C)ccc3c(=O)[nH]2)cc1OC | 22.1 | 7.17 | 7.8 | 
COc1ccc2c(c1)Cn1c-2cc2cc(C)ccc2c1=O | 5.95 | 8.78 | 5.52 | inactive
COc1ccc(COCc2ccccc2-c2cc3ccccc3c(=O)[nH]2)cc1 | 26.56 | 17.39 | 24.66 | 
COc1ccc2c(c1)Cn1c-2cc2ccccc2c1=O | 9.25 | 7.29 | 12.01 | Active
COc1ccc2c(c1)Cn1c-2cc2ccc(C)cc2c1=O | 45.12 | 34.33 | 15.34 | inactive
Cc1ccc2cc3n(c(=O)c2c1)Cc1ccccc1-3 | 41.44 | 35.27 | 48.92 | Active
COc1cc(CO)c(-c2cc3ccc(C)cc3c(=O)[nH]2)cc1OC | 15.15 | 22.45 | 0.67 | 
COCOCc1cc(OC)ccc1-c1cc2ccccc2c(=O)[nH]1 | 32.98 | 21.84 | 17.06 | 
